In the experiment the test system is Ng F62 (wildtype [WT]). Kind of experiment: BALB/c vaginal colonization model, Ng F62. The format is in vivo, N. gonorrhoeae. The following applies: 10 μg intravaginally daily. The method, then:
FIG. 13. […] A and B. Efficacy of CMP-Leg5Ac7Ac against Ng F62. 17β-estradiol treated BALB/c mice were infected with i) Ng F62 (wildtype [WT]) and treated (CMP-Leg5Ac7Ac, 10 μg intravaginally, daily), ii) Ng F62 WT→saline (No treatment) or iii) Ng F62 Δlst (cannot sialylate LOS), untreated. Ng load in the vagina was enumerated daily. A. Time to clearance. B. Area under the curve (AUC; each point represents the AUC of CFU vs. time for each mouse). Horizontal bar, geometric mean. C and D. Efficacy of CMP-Leg5Ac7Ac vs ceftriaxone-resistant isolate H041. Time to clearance (C) and AUC analysis (D) are described above.
The efficacy of CMP-Leg5Ac7Ac against Ng was tested in the BALB/c vaginal colonization model (FIG. 13) (51). Three groups of 17β-estradiol treated BALB/c mice (10 mice/group) were infected as follows: i) WT F62→CMP-Leg5Ac7Ac (10 μg intravaginally daily), ii) WT F62→saline control (‘untreated’) and iii) F62 List (cannot sialylate LOS)→untreated.

Regarding “5,7-diacetamido-3,5,7,9-tetradeoxy-D-glycero-D-galacto-nonulosonic acid [CMP-Leg5Ac7Ac]”, the “Ng infection (time to clearance, AUC of CFU vs. time)” value (17β-estradiol treated BALB/c mice, vs saline) is on record as “significantly attenuated Ng infection”. Besides, the “sensitivity to human complement of bacteria recovered directly from treated mice” value (BALB/c mice, not shown) was “became sensitive to human complement”.

(Values after patent US10865222B2, “Neisseria gonorrhoeae therapeutic based on CMP-nonulosonate sugars” (priority 2014, dated 2020).)
